Patent US4992534A, “3'-O-,5'-O-derivatives of 2'-deoxy-5-fluorouridine” (Otsuka Pharmaceutical Co., Ltd., priority 1987, dated 1991)

Tested on: Sarcoma-180
Experiment: Antitumor test against subcutaneously transplanted Sarcoma-180 in ICR mice (Pharmacological Test 1)
Assay type: in vivo
Details: Sarcoma-180 s.c. in ICR mice, tail vein once a day for 7 consecutive days from 24 h after transplantation, tumor weight on 10th day
Experimental: Sarcoma-180 subcultured in ascites of ICR mice was diluted with a physiological saline and subcutaneously transplanted into the backs of ICR mice in an amount of 2 ×10^7 cells each. Twenty-four hours after the transplantation, a test compound dissolved in sterilized physiological saline was administered to the tail vein of each of the mice once a day for 7 consecutive days.
The solid tumor was isolated from under the dorsal skin of mice on the 10th day after the transplantation to measure the weight of the tumor There was determined the ratio (T/C) of the weight of tumor (T) of the test compound group to the weight of tumor (C) of the control group.

| Compound | 50% tumor inhibition dose (ED50), dose at which T/C of tumor weight is 0.5 | ED50 (Mus musculus, sc, 240 h, read-out: 50% tumor inhibition dose (ED50), dose at which T/C of tumor weight is 0.5) |
| --- | --- | --- |
| 3'-O-(5-bromo-2-thenyl)-2'-deoxy-5-fluoro-5'-O- glycyluridine hydrochloride [Test Compound 2] | 7 mg/kg |  |
| Cl.NCC(=O)OC[C@H]1O[C@@H](n2cc(F)c(=O)[nH]c2=O)C[C@@H]1OCc1ccc(Cl)s1 [Test Compound 1, 3'-O-(5-chloro-2-thenyl)-2'-deoxy-5-fluoro-5'-O-glycyluridine hydrochloride] |  | 5 mg/kg |
